From publication PMC8880061, “Synthesis of (+)-(R)-Tiruchanduramine” (Molecules, 2022)

Biological target: almond β-glucosidase
Test: glycosidase inhibition assay with p-nitrophenyl substrate, commercial (Sigma) enzyme
Assay type: biochemical, Prunus dulcis

- IC50: 1000 µM
SMILES: NC1=NC[C@@H](CCNC(=O)c2cc3c(cn2)[nH]c2ccccc23)N1 [compound 1, (+)-(R)-Tiruchanduramine]
